These results are taken from patent publication EP0551434B1 (BOARD OF REGENTS THE UNIVERSITY OF TEXAS SYSTEM, priority 1990, dated 1992).

pIC50, pKi: −log10 of the molar value.

As usually defined, the pIC50 is the IC50 on a negative log10 scale, so that one unit is a factor of ten. As a reminder, the pKi is −log10 of the Ki, conventionally taken in molar units. High values mean a low Ki, low ones a high Ki. A word on the IC50: it is the concentration that gives 50% inhibition. Read a high IC50 as weaker potency.

The target in series [1] is estrogen receptor (Homo sapiens, UniProt P03372). Conditions: Salituro et al.; cited from earlier work.
Sequence of estrogen receptor (Homo sapiens, UniProt P03372) (P03372 whole entry): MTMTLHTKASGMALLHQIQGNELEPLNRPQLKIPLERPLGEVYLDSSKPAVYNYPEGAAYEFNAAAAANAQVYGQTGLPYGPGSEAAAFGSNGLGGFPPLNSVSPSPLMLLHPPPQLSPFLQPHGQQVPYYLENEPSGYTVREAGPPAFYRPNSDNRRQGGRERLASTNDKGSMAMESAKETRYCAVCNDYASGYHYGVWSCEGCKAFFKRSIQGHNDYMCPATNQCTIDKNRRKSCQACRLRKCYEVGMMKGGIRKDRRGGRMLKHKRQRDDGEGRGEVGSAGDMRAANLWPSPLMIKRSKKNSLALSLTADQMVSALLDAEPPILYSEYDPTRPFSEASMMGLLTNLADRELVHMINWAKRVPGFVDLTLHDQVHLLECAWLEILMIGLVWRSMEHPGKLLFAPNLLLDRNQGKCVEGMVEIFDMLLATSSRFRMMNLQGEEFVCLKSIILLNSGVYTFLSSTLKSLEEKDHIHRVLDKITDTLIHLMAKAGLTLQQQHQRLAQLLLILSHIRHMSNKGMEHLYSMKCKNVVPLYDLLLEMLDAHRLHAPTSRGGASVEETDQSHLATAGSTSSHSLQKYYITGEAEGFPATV
Series [2] is described as follows: Uterus to muscle ratio (tissue uptake, method not described). To be noted: in vivo.
The target of series [3] is T1, estrogen receptor (Sus scrofa, UniProt Q29040).
T1 sequence (Q29040 1-595): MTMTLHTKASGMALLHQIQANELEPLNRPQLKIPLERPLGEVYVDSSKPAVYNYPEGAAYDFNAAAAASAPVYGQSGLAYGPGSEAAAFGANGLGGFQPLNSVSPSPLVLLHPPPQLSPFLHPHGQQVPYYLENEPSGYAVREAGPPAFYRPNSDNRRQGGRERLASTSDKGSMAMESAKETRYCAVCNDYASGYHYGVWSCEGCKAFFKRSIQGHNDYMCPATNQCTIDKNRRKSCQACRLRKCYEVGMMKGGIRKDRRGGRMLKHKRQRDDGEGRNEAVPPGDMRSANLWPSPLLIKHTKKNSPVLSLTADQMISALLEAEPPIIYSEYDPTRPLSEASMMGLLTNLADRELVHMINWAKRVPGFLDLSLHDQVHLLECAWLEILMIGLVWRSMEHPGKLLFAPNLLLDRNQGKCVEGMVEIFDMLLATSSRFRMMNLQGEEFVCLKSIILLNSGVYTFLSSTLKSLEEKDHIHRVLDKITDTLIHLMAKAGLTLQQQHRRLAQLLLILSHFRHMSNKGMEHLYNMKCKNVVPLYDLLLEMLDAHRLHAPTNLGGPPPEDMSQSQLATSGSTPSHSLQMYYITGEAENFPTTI
The experiment in a line: biochemical. To be noted: for pIC50: IC-50 estrogen receptor binding, [^3H]estradiol (5 nM).

The target in series [4] is T1, estrogen receptor.
Series [5] in a line: In vivo tissue uptake of ^131I-IMTX (trans) in rat.
The next series has as its system MCF7. Put plainly: Inhibition of MCF7 breast tumor cell growth in vitro (72 hour exposure, MTT tetrazolium dye assay). Format: cell-based, human. Conditions: Table 6; for RP: relative potency, IC50 ratio between tamoxifen and competitor, tamoxifen = 100. The protocol:
The MCF7 cell line is a human tumor cell line. This cell line was cultured in MEM( (Eagles) media in a 5% C0^2 atmosphere with 10% fetal calf serum that had been washed twice with dextran coated charcoal to reduce endogenous estrogen levels. The media was supplemented with 1 mM sodium pyruvate and 100 µm non-essential amino acids. The cell line was screened routinely for myoplasma contamination using the GenProbe kit (Fisher). Cells were trypsinized and plated at a density of 5,000 cells/well in 96 well microtiter plates and allowed to attach and recover for 24 hours.
The media was removed by aspiration and replaced with filter sterilized drug (concentration from 10-^4 M to […]) in media. The cells were incubated for 72 hours and then stained using the MTT tetrazolium dye assay of Mosmann^36 except that after the media was removed, the blue formazan product was solubilized in 50 µl/well DMSO.
(Formazan colour is commonly taken as a measure of viable cells.)

The mark [6] stands for this setting: IC50(uM), concentration required to decrease bound [^3H]estradiol by 50%, average of three experiments.

For `CC/C(=C(\c1ccccc1)c1ccc(OCCN2CC2)cc1)c1ccccc1` (single isomer, unassigned) [tamoxifen azizidine cis isomer, tamoxifen azizidine], the “fold less affinity than the trans isomer” value at estrogen receptor [1] is 50 fold.
Take `CCN(CC)CCOc1ccc(/C(=C(/CCCI)c2ccccc2)c2ccccc2)cc1` [Compound X]: the “uterus to muscle ratio” value in series [2] came out at 3.6. In addition, the negative logarithm of the IC50 (pIC50) at estrogen receptor [3] is 5.70. Besides, at estrogen receptor [4], the “fold higher affinity for the estrogen receptor than native tamoxifen” value is on record as 10-15 fold.
For `CCN(CC)CCOc1ccc(C(=C(CCC[131I])c2ccccc2)c2ccccc2)cc1` (single isomer, unassigned) [^131 I-IMTX (trans)], the Uterus/blood ratio in series [5] (3h) is reported as 1.6; in series [5] (6h), 1.5; in series [5] (24h), 1.2. The tissue uptake liver in series [5] (n=5, 3h) came out at 5.3 ± 0.84 % injected dose per organ; in series [5] (n=5, 6h), 3.0 ± 0.02 % injected dose per organ; in series [5] (n=5, 24h), 1.7 ± 0.21 % injected dose per organ. Also, the tissue uptake uterus in series [5] (n=5, 3h) came out at 0.5 ± 0.04 % injected dose per organ; in series [5] (n=5, 24h) it was 0.01 ± 0.001 % injected dose per organ.
On to `CCN(CC)CCOc1ccc(/C(=C(\CCCO)c2ccccc2)c2ccccc2)cc1` [III (Cis), N,N-diethyl-hydroxymethyltamoxifen], for which, at estrogen receptor [3], the pKi was 5.30. Further, the IC50 at estrogen receptor [3] (IC50(M), [^3H]estradiol 5 nM, 4°C) turned out to be 1e-05 M; on estrogen receptor [3] (setting [6]), 1e-05 M. Further, the pIC50 was 5.00 at estrogen receptor [3] and 4.78 in the series on MCF7 (Homo sapiens, MCF7, 72 h, 72 hour exposure, average of three experiments, read-out: IC50 Dose). The molecule further came in with an RBA on estrogen receptor [4] of 3. At estrogen receptor [4], the “RBA*” value amounted to 300. Besides, in the series with MCF7, the RP was determined as 66.
Molecule `CCN(CC)CCOc1ccc(/C(=C(\CCCCl)c2ccccc2)c2ccccc2)cc1` [Compound XII (Cis), 1[4-(2-Diethylaminoethoxy)phenyl]-1,2-diphenyl-5-chloro-1-pentene] showed a 50% inhibitory concentration (IC50) at estrogen receptor [3] (setting [6]) of 4e-06 M. Moreover, at estrogen receptor [3], the pIC50 was 5.40. Further, the RBA at estrogen receptor [4] is listed as 7.5. The RP with MCF7 stood at 335.
